Data from US8703825B2, “Compounds, use thereof as medicaments, and method of preparation thereof” (Universite de Lorraine, priority 2008, dated 2014).
Converted amounts (≈) assume the structure as drawn. Read-outs that look alike come from different tables or passages of the source.

Key:
Type in all cases: cell-based
[1] = test system: E. faecalis resistant to teicoplanin and to vancomycin (vanA gene) (EfR2); experiment: MIC by microdilution, clinical isolate; conditions: Enterococcus faecalis
Procedure: (§1) The study also included 5 clinical isolates, obtained from rectal samples and/or from haemoculture: • […] E. coli (EcR1), • methicillin-resistant S. aureus (mecA gene) (SaR1), • vancomycin-resistant E. faecium (vanB gene) (EfR1), • E. faecalis resistant to teicoplanin and to vancomycin (vanA gene) (EfR2), and • P. aeruginosa overexpressing an efflux pump (PaRl).
(§2) The isolates were selected on the basis of their resistance profile. The resistance profiles were determined on VITEK2 (BioMérieux, France).
(§3) The bacteria are cultivated either on Mueller-Hinton agar (Difco, 225250), or in Mueller-Hinton broth (Difco, 275730), at 35° C. [Grare M, Mourer M, Fontanay S, Regnouf-de-Vains J B, Finance C, Duval R E. In vitro activity of para-guanidinoethylcalix[4]arene against susceptible and antibiotic-resistant Gram-negative and Gram-positive bacteria. J. Antimicrob Chemother. 2007; 60: 575-81].
(§4) The various molecules tested were prepared in the form of aqueous solution at 10^−2 mol/L. The solutions used for the biological tests are freshly prepared, and stored for a week at most, at 4° C. The solutions are filtered through a filter with pores of 0.22 μm (Millex®GP; 0.22 μm; Millipore; France) before each test.
(§5) Procedure for determining the Minimum Inhibitory Concentration (MIC)
(§6) The minimum inhibitory concentrations (MIC) were determined by the standardized method of microdilution in liquid medium (96-well microplate, U-shaped bottom, Greiner), in Mueller-Hinton broth, with a final inoculum of 10^5-10^6 CFU/mL, depending on the bacterial species, in accordance with the recommendations of the CLSI.
(§7) For the determination of MIC, bacterial suspensions are prepared from an isolated colony, taken from a Mueller-Hinton agar, taken up in 5 mL of Mueller-Hinton broth. After 24 h of growth, the bacterial suspensions are diluted in sterile distilled water in order to obtain an inoculum of 10^5-10^6 CFU/mL. The purity of the bacterial suspensions is tested by isolation on agar and Gram staining.
(§8) The results are the mean value of 4 independent experiments.

[2] = test system: MRSA (mecA gene), methicillin-resistant S. aureus (SaR1); experiment: MIC by microdilution, clinical isolate; conditions: Staphylococcus aureus
Procedure: as §1, §2, §3, §4, §5, §6, §7, §8

[3] = test system: P. aeruginosa overexpressing an efflux pump (PaR1); experiment: MIC by microdilution, clinical isolate; conditions: Pseudomonas aeruginosa
Procedure: as §1, §2, §3, §4, §5, §6, §7, §8

[4] = test system: penicillinase-producing E. coli (EcR1); experiment: MIC by microdilution, clinical isolate; conditions: Escherichia coli
Procedure: as §1, §2, §3, §4, §5, §6, §7, §8

[5] = test system: vancomycin-resistant E. faecium (vanB gene) (EfR1); experiment: MIC by microdilution, clinical isolate; conditions: Enterococcus faecium
Procedure: as §1, §2, §3, §4, §5, §6, §7, §8

[6] = in vitro; conditions: human
Excerpt: (§9) The eukaryotic cells used in our study are HaCaT cells (human keratinocytes), which were kindly supplied by the Pierre Fabre Institute (Toulouse, France); and MRC-5 cells (human embryonic fibroblasts), which were obtained from the company BioMérieux (Lyons, France). These cells are cultivated in DMEM (“Dulbecco's modified Eagle's medium”, Invitrogen 61965) for the HaCaT cells, and MEM (“modified Eagle's medium”, Invitrogen 41090); 10% of fetal calf serum (FCS, Invitrogen, 10270, Batch 40Q5150K) in a humid chamber at 37° C., under 5% CO2. The HaCaT and MRC-5 cells were seeded at 10^4 cells/well in 96-well plates (Sarstedt 831835). After 48 h of growth, the culture medium is withdrawn and replaced with the various “test” solutions (volume=100 μL). After contact time of 24, 48 and/or 168 H,the viability or cytotoxicity tests are carried out.
(§10) b) Cytotoxicity Tests (Neutral Red Test)
(§11) The cytotoxicity test is based on incorporation of a vital dye, Neutral Red, in the lysosomes of the viable cells, after exposure of the cells to different concentrations of the test molecules. The quantity of dye, after extraction from the lysosomes, is quantified by means of a spectrophotometer and compared with that obtained in the case of “control” cells, not exposed to the test molecules.
(§12) The test was carried out as described previously [Borenfreund E, Puerner J A. Toxicity determined in vitro by morphological alterations and neutral red absorption. Toxicol Lett 1985; 24: 119-24, and Grare M, Mourer M, Fontanay S, Regnouf-de-Vains J B, Finance C, Duval R E. In vitro activity of para-guanidinoethylcalix[4]arene against susceptible and antibiotic-resistant Gram-negative and Gram-positive bacteria. J Antimicrob Chemother. 2007; 60: 575-81].
(§13) After contact times of 24, 48 and/or 168 h with the different concentrations of the test molecules, the medium contained in each well is withdrawn and replaced with 200 μL of medium without phenol red (Invitrogen, 51200) containing 50 μg/mL of Neutral Red for an additional 3 h of incubation. The cells are then rinsed 3 times with PBS solution. After the last washing with PBS, 200 μL of a solution with 1% acetic acid/50% ethanol is added to each well to extract the dye from the lysosomes of the viable cells. The absorbance is measured at 540 nm, with a reference wavelength at 690 nm, by means of an ELISA plate reader (Multiskan E X, Thermo Electron Corporation, France). The results are the mean of the values obtained for 8 wells per concentration and per unit time. Each experiment was carried out 3 times.

[7] = in vitro; conditions: human; remark: listed apart in the source
Excerpt: as §9, §10, §11, §12, §13

[8] = test system: Escherichia coli ATCC 25922; experiment: MIC by microdilution in liquid medium (CLSI / CA-SFM); conditions: E. coli ATCC 25922; HaCaT cell lines, 24 h exposure
[9] = test system: Staphylococcus aureus ATCC 25923; experiment: as above; conditions: S. aureus ATCC 25923; HaCaT cell lines, 24 h exposure
[10] = test system: Enterococcus faecalis ATCC 29212; experiment: as above; conditions: E. faecalis ATCC 29212; HaCaT cell lines, 24 h exposure
[11] = test system: Pseudomonas aeruginosa ATCC 27853; experiment: as above; conditions: P. aeruginosa ATCC 27853; HaCaT cell lines, 24 h exposure
[12] = clinical isolate, E. faecalis (vanA gene), read-out: MIC
[13] = clinical isolate, MRSA (mecA gene), read-out: MIC
[14] = clinical isolate, penicillinase-producing E. coli, read-out: MIC
[15] = clinical isolate, E. faecium (vanB gene), read-out: MIC

Row | Structure (SMILES) | MIC [1] [µg/mL] | MIC ([2]; MRSA) [µg/mL] | MIC [3] [µg/mL] | MIC [4] [µg/mL] | MIC [5] [µg/mL] | CC50 at 24 h [6] [µg/mL] | CC50 at 48 h [6] [µg/mL] | CC50 at 24 h [7] [µg/mL] | CC50 at 48 h [7] [µg/mL] | Selectivity index (SI=IC50/MIC) [8] | Selectivity index (SI=IC50/MIC) [9] | Selectivity index (SI=IC50/MIC) [10] | Selectivity index (SI=IC50/MIC) [11] | MIC [1, 12] [µg/mL] | MIC [2, 13] [µg/mL] | MIC [4, 14] [µg/mL] | MIC [5, 15] [µg/mL] | CC50 at 168 h [6] [µg/mL]
1 | N=C(N)c1ccc(OCCCCCCOc2ccc(C(=N)N)cc2)cc1 [HX, hexamidine] | 4 (≈ 11.3 µM) | 2 (≈ 5.64 µM) | 64 (≈ 181 µM) | 8 (≈ 22.6 µM) | 2 (≈ 5.64 µM) | 8 to 16 (≈ 22.6 to 45.1 µM) | 8 to 16 (≈ 22.6 to 45.1 µM) | 8 to 16 (≈ 22.6 to 45.1 µM) | 8 to 16 (≈ 22.6 to 45.1 µM) | 4-8 | 8-16 | 16-32 | 1-2 |  |  |  |  | 
2 | [H]/N=C(\N/C(=N/[H])NCCCCCCNC(=N)NC(=N)Nc1ccc(Cl)cc1)Nc1ccc(Cl)cc1 [CHX, chlorhexidine] |  |  | 8 (≈ 15.8 µM) |  |  | 8 to 16 (≈ 15.8 to 31.7 µM) |  | 8 to 16 (≈ 15.8 to 31.7 µM) |  | 64-128 | 32-64 | 8-16 | 2-4 | 2 (≈ 3.96 µM) | 0.5 (≈ 0.989 µM) | 0.5 (≈ 0.989 µM) | 1 (≈ 1.98 µM) | 
3 | N=C(N)NCCc1ccc(OCCCCCCOc2ccc(CCNC(=N)N)cc2)cc1 [compound 6, 1,6-bis(4-(2-guanidinoethyl)phenoxy)hexane] |  |  | 32 (≈ 72.6 µM) |  |  | 4 to 8 (≈ 9.08 to 18.2 µM) | 2 to 4 (≈ 4.54 to 9.08 µM) | 4 to 8 (≈ 9.08 to 18.2 µM) |  | 1-2 | 8-16 | 0.5-1^ | 0.25-0.5 | 16 (≈ 36.3 µM) | < 1 | 4 (≈ 9.08 µM) | 8 (≈ 18.2 µM) | 1 to 2 (≈ 2.27 to 4.54 µM)
